Measurements from the SangsterLogP compilation.

Test: method code SF, from Hansch, C. & Leo, A. (1987). Log P database [Dataset]. Pomona College Medicinal Chemistry Project.

| SMILES | logP | further results |
| --- | --- | --- |
| NC(=O)CCl | -0.53 |  |
| CCc1cccs1 | 2.87 |  |
| ClC(Cl)=C(Cl)Cl | 3.4 |  |
| CCOC(=O)CON=Cc1ccc(OCCOC(=O)c2ccccc2OC)c(OC)c1 | 3.27 |  |
| CC(=O)OCC1=C(C(=O)O)N2C(=O)C(NC(=O)C(O)c3ccccc3)C2SC1 (configuration not stated) |  | logD (pH 3.0): -0.44 |
| CN(Cc1ccc([N+](=O)[O-])cc1)/N=N/c1ccc(C(=O)O)cc1 | 4.03 |  |
| CC(C)(C)C(=O)Nc1ccc(Cl)c(Cl)c1 | 3.88 |  |
| CCOC(=O)C(O)c1ccccc1 (configuration not stated) | 1.53 |  |
| CN(Cc1ccc(C#N)cc1)/N=N/c1ccc(C(=O)O)cc1 | 3.6 |  |
| CC(=O)c1ccccc1Cl | 2.09 |  |
| O=[N+]([O-])c1ccc2[nH]ccc2c1 | 2.53 |  |
| CCN(CC)c1c(C)n(-c2ccccc2)c(=O)n(C)c1=O |  | logD (pH 7.4): 2.19 |
| O=CNc1ccccc1 | 1.2 |  |
| O=c1n[n+]([O-])ccn1Cc1ccccc1 | 0.19 |  |
| OCc1cccs1 | 0.87 |  |
| O=C1C=C(O)CCN1[C@@H]1O[C@H](CO)[C@@H](O)[C@H]1O |  | logD (pH 7.4): -2.28 |
| O=C1C(NCC(O)CO)=C(N2CC2)C(=O)C(NCC(O)CO)=C1N1CC1 (configuration not stated) | -1.97 |  |
| CC1(C)OC2CC3C4CC(F)C5=CC(=O)C(Cl)=CC5(C)C4(F)C(O)CC3(C)C2(C(=O)CO)O1 (configuration not stated) | 2.99 |  |
| O=C(O)c1cc2ccccc2[nH]1 |  | logD (pH 2.0): 2.31 |
| Cc1c(Cl)c(Cl)c(Cl)c(Cl)c1Cl | 5.62 |  |
| COc1cccc(NC(C)=O)c1 | 1.28 |  |
| CC(=O)C(F)(F)F | 0.2 |  |
| CC(=O)Nc1cccc(I)c1 | 2.64 |  |
| N#CN=[N+]([O-])c1ccccc1 | 1.87 |  |
| CC(=O)Nc1ccc(S(C)(=O)=O)cc1 | 0.58 |  |

| SMILES | logP | further results |
| --- | --- | --- |
| CN(C)Cc1cccnc1 |  | logD (pH 11.0): 0.49 |
| CN(C)c1ccc(S(N)(=O)=O)cc1 |  | logD (pH 7.0): 0.76 |
| CC1=Nc2ccccc2S(=O)(=O)N1 | 0.29 |  |
| CCCCNC | 1.33 |  |
| O=[N+]([O-])c1ccc2[nH]c(CCc3nc4cc([N+](=O)[O-])ccc4[nH]3)nc2c1 | 1.29 |  |
| CSc1ccccc1NC(C)=O | 1.53 |  |
| CCOC(=O)C(=Cc1ccccc1Cl)C(=O)OCC | 3.15 |  |
| CCOC(=O)C(=Cc1ccc(OC)cc1)C(C)=O | 2.46 |  |
| Cn1ncc2ccccc2c1=O | 0.61 |  |
| O=[N+]([O-])c1ccc(C(F)(F)F)cc1 | 2.55 |  |
| CN(C)/N=N/c1cccc([N+](=O)[O-])c1 | 2.75 |  |
| CCN(CC)C(=O)[C@@H]1C=C2c3cccc4[nH]cc(c34)C[C@H]2N(C)C1 | 2.95 |  |
| NC(=O)Nc1cccc(NC(N)=O)c1 | 0.58 |  |
| CCCCNC(N)=O | 0.41 |  |
| COC1OCC(O)C(NC(=O)N(C)N=O)C1O (configuration not stated) |  | logD (pH 7.4): -1.08 |
| Cc1cccc(/N=N/N(C)C)c1 | 2.85 |  |
| NC(=S)NN=Cc1cccc(O)c1 | 1.61 |  |
| O=c1[nH]c(=O)n([C@H]2C[C@H](O)[C@@H](CO)O2)cc1C(F)(F)F | -0.46 |  |
| Ic1cn[nH]c1 | 1.7 |  |
| CCOC(=O)CC(=O)C=Cc1cccc(C)c1 | 2.8 |  |
| CNC(=O)Oc1cc(C)c(Cl)cc1C | 2.95 |  |
| C[C@@H]1C[C@H]2[C@@H]3C[C@H](F)C4=CC(=O)C(Cl)=C[C@]4(C)[C@@]3(Cl)[C@@H](O)C[C@]2(C)[C@@]1(O)C(=O)COC(=O)C(C)(C)C | 4.73 |  |
| CCC(C)C(=O)Nc1ccc(Cl)c(Cl)c1 (configuration not stated) | 4.11 |  |
| CC1(C)N=C(N)N=C(N)N1c1ccc(C(F)(F)F)cc1 |  | logD (pH 13.0): 1.22 |
| Cc1ccc(C=C(C#N)C#N)cc1 | 2.4 |  |

| SMILES | logP | further results |
| --- | --- | --- |
| C[C@@H]1C[C@H]2[C@@H]3C[C@H](F)C4=CC(=O)C=C[C@]4(C)[C@@]3(F)[C@@H](O)C[C@]2(C)[C@@]1(O)C(=O)COC(=O)C(C)(C)C | 3.86 |  |
| N#CCc1cccs1 | 1.26 |  |
| CCCCS | 2.28 |  |
| O=[N+]([O-])C=Cc1ccsc1 | 1.94 |  |
| CC(=O)Oc1ccccc1F | 1.76 |  |
| CC(=O)C(=Cc1ccccc1)C(C)=O | 1.59 |  |
| CC(C)(C)c1ccccc1 | 4.11 |  |
| O=C(O)Cc1c[nH]c2ccccc12 | 1.41 |  |
| Nc1nc(O)c2nc[nH]c2n1 | -0.91 |  |
| CCC1(CCC(C)C)C(=O)NC(=S)NC1=O | 2.98 |  |
| COc1ccc(Cn2ccnc2C=Cc2ccc([N+](=O)[O-])o2)cc1 | 1.37 |  |
| c1cnc2[nH]ccc2c1 | 1.82 |  |
| O=C1C2(Cl)C3(Cl)C4(Cl)C(Cl)(Cl)C5(Cl)C3(Cl)C1(Cl)C5(Cl)C24Cl (configuration not stated) | 5.41 |  |
| CCC[C@@H]1C[C@@H](C(=O)N[C@@H]([C@H]2O[C@H](SC)[C@H](O)[C@@H](O)[C@H]2O)[C@@H](C)O)N(CC)C1 |  | logD (pH 12.0): 1.02 |
| C/N=C(\NC)NC#N | -0.4 |  |
| CC(C)CC(CC(C)C)OC(=O)c1ccc(NC(=O)N(C)C)cc1Cl | 5.15 |  |
| CCC(C)NP(=O)(OC)Oc1cc(Cl)c(Cl)cc1Cl (configuration not stated) | 3.99 |  |
| CCCS | 1.81 |  |
| O=C(O)c1ccccc1S |  | logD (pH 1.0): 2.39 |
| O=C(O)CCS | 0.43 |  |
| C[C@@H](O)c1ccccc1 | 1.42 |  |
| CN(C)Cc1cccs1 | 1.67 |  |
| Cc1cccc(Cl)c1 | 3.28 |  |
| FC(F)(F)c1ccc2cccnc2c1 |  | logD (pH 7.0): 3.02 |
| COc1cc(/C=N/O)ccc1OCCOC(=O)c1ccc(Cl)cc1 | 3.92 |  |

| SMILES | logP | further results |
| --- | --- | --- |
| O=[N+]([O-])c1cc[n+]([O-])cc1 | -0.55 |  |
| CN(C)C(=O)Nc1ccc(OCc2ccc(Cl)cc2Cl)cc1 | 4.1 |  |
| CON(C)C(=O)Nc1ccc2c(c1)Cc1ccccc1-2 | 3.67 |  |
| CC(=O)c1ccccc1OC(=O)N(C)C | 0.93 |  |
| O=C(O)Cc1ccc(S(=O)(=O)F)cc1 | 1.86 |  |
| CN(C)C(=O)N(c1ccccc1)c1ccccc1 | 2.8 |  |
| COc1cc(C=NOC(=O)COc2ccccc2)ccc1OCCO | 2.1 |  |
| COC(=O)c1ccsc1 | 1.76 |  |
| Clc1ccc2[nH]c(CCCc3nc4cc(Cl)ccc4[nH]3)nc2c1 | 1.88 |  |
| Cc1ccc2[nH]c(CCCCCCc3nc4cc(C)ccc4[nH]3)nc2c1 | 1.76 |  |
| COc1ccc(C=C(C(C)=O)C(C)=O)cc1 | 1.73 |  |
| CC(=O)NN=CCCc1ccccc1 |  | logD (pH 7.4): 1.8 |
| CC(=O)Nc1ccc(N(C)C)cc1 | 1 |  |
| CN(C(=O)c1ccccc1)c1ccccc1 | 2.36 |  |
| CO[C@H]1C=CO[C@@]2(C)Oc3c(C)c(O)c4c(O)c(c(C=NN5CCNCC5)c(O)c4c3C2=O)NC(=O)C(C)=CC=C[C@H](C)[C@H](O)[C@@H](C)[C@@H](O)[C@@H](C)[C@H](OC(C)=O)[C@@H]1C | 1.12 |  |
| CN(C)C(=O)CCc1ccco1 | 0.62 |  |
| CCOC(=O)C(Cc1ccccc1)C(=O)OCC | 2.76 |  |
| COc1ccc(-c2nc3cnccc3[nH]2)c(OC)c1 | 2.56 |  |
| C=CCN(CC=C)CC=C |  | logD (pH 13.0): 2.59 |
| CC=CC1=Nc2cc(Cl)ccc2S(=O)(=O)N1 | 1.96 |  |
| O=c1nc[nH]c(=O)[nH]1 | -1.87 |  |
| NC(=O)C(=Cc1ccccc1)C(N)=O | -0.13 |  |
| CCC(=O)OCCOc1ccc(C=NO)cc1OC | 1.52 |  |
| COc1ccc2c(c1)N(CCCN(C)C)c1ccccc1S2 | 4.46 |  |
| CCOC(=O)C(=Cc1cccc(OC)c1)C(=O)OCC | 3.18 |  |

| SMILES | logP | further results |
| --- | --- | --- |
| S=C(Nc1ccccc1)c1ccccc1 | 3.03 |  |
| O=C1C=CC(=NBr)C=C1 | 1.12 |  |
| CC(=O)C(C)=O | -1.34 |  |
| NC(=O)c1ccc(C(O)C(CO)NC(=O)C(Cl)Cl)cc1 (configuration not stated) | -0.48 |  |
| CC1(C)N=C(N)N=C(N)N1c1cccc([N+](=O)[O-])c1 |  | logD (pH 12.0): 0.06 |
| CNc1ccccc1[N+](=O)[O-] | 2.18 |  |
| O=c1[nH]cc(C(F)(F)F)c(=O)[nH]1 | 0.04 |  |
| COc1ccccc1OCC(=O)O |  | logD (pH 1.0): 0.98 |
| CC(C)c1cccc(C(C)C)c1N | 3.18 |  |
| C=CCN(CC=C)c1c(C)n(-c2ccccc2)c(=O)n(C)c1=O |  | logD (pH 7.4): 2.59 |
| CC(=O)c1ccc([C@@H](O)[C@@H](CO)NC(=O)C(Cl)Cl)cc1 | 0.57 |  |
| O=NN1CCOCC1 | -0.3 |  |
| Cc1ccc(OC(=O)CNC(=O)c2ccccc2)cc1 | 2.83 |  |
| CCCNP(=O)(OC)Oc1cc(Cl)c(Cl)cc1Cl (configuration not stated) | 3.7 |  |
| CCn1c(C)c(N(C)C)c(=O)n(-c2ccccc2)c1=O |  | logD (pH 7.4): 1.8 |
| O=C(NO)c1ccccc1 | 0.26 |  |
| OCc1cccc(C(F)(F)F)c1 | 2.24 |  |
| CN(C)/N=C/CCc1ccccc1 |  | logD (pH 7.4): 2.05 |
| NC(=O)COc1ccccc1 | 0.76 |  |
| CC(=O)Nc1ccc(C(N)=O)cc1 | 0.01 |  |
| CCOP(=S)(OCC)SCn1nnc2ccccc2c1=O | 3.4 |  |
| CC(=O)c1cccc(N2C(N)=NC(N)=NC2(C)C)c1 |  | logD (pH 13.0): -0.22 |
| COC1C=COC2(C)Oc3c(C)c(O)c4c(O)c(c(/C=N\N5CCCCCCCCCC5)c(O)c4c3C2=O)NC(=O)/C(C)=C\C=C/C(C)C(O)C(C)C(O)C(C)C(OC(C)=O)C1C (configuration not stated) | 4.05 |  |
| O=c1[nH]nc(Sc2ccccc2)[nH]1 | 1.46 |  |
| COc1cc(C=O)ccc1OCCOC(=O)c1ccccc1Cl | 3.21 |  |

| SMILES | logP | further results |
| --- | --- | --- |
| CC(C)CCO[N+](=O)[O-] | 2.84 |  |
| Cc1ccc(S(=O)(=O)Oc2ccccc2C(=O)N(C)C)cc1 | 2.01 |  |
| CC(O)C(C)(C)C(O)C(=O)OCC1=CC[N+]2([O-])CCC(O)C12 (configuration not stated) |  | logD (pH 7.4): -1.52 |
| CC(=O)C(=Cc1ccc(F)cc1)C(C)=O | 1.65 |  |
| CC(=O)N(c1ccccc1)c1ccccc1 | 2.05 |  |
| O=C(O)CCl | 0.22 |  |
| Cc1ccc2c(=O)[nH]c(=O)[nH]c2c1 | 0.55 |  |
| CC1(C)N=C(N)N=C(N)N1c1ccc(N)cc1 |  | logD (pH 13.0): -0.59 |
| c1cn[nH]n1 | -0.29 |  |
| Nc1ccc(OC(=O)CNC(=O)c2ccccc2)cc1 | 1.01 |  |
| c1ccc2oncc2c1 | 1.63 |  |
| O=[N+]([O-])c1ccc(C=Cc2nccn2Cc2ccncc2)o1 | 1.67 |  |
| CC(C)NCc1cccnc1 |  | logD (pH 11.0): 0.82 |
| CCOC(=O)C(=Cc1cccc(F)c1)C(=O)OCC | 3.19 |  |
| CNC(=S)NCc1ccccc1 | 1.35 |  |
| CNC(=O)Oc1cccc(Cl)c1Cl | 2.48 |  |
| COc1cc(S(C)=O)ccc1-c1cn2ccncc2n1 (configuration not stated) | 1.11 |  |
| O=[N+]([O-])/C=C/c1ccc(Cl)cc1Cl | 3.26 |  |
| COC(=O)c1ccccc1C | 2.75 |  |
| CCC(C)NC(=O)C=C(Br)c1ccc(Cl)cc1 (configuration not stated) | 3.9 |  |
| CNP(=O)(OC)Oc1ccc(OC)cc1 (configuration not stated) | 1.06 |  |
| CN1CC(C)(C)C(=O)c2ccccc21 |  | logD (pH 7.0): 2.72 |
